Here are results for 1 compound from patent US20210360924A1, “PLANT OR SEED COATING” (University of Southampton, priority 2017, published 2021).

SMILES strings stand for the structures.

For this test, the target named is G. pallida SER-7 (Globodera pallida, UniProt A0A183BS20, DEL280-286/G462A/H333Q/S454N/S6T/Y334H). Nature of the test: Cut head pharyngeal pumping assay, ser-7 (tm1325) expressing Gpa-ser-7.

`NCCc1c[nH]c2ccc(O)cc12` [serotonin, 5-hydroxytryptamine]: a half-maximal effect (EC50) was put at 3.9 µM.
